Data reported in PubChem BioAssay (NCI).
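Tested at 5 concentrations; 48 h exposure; 96-well plates; endpoints linearly interpolated, else capped at highest concentration. GI50 is the concentration that inhibits growth by half. The concentration for full growth arrest is given as TGI.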

How the values were obtained:
Test in all cases: growth of human tumour cells (NCI), 48 h
OVCAR-8 ovarian = tested on: OVCAR-8 ovarian
HOP-62 NSCLC = tested on: HOP-62 NSCLC
HCC-2998 colon = tested on: HCC-2998 colon
SNB-75 CNS = tested on: SNB-75 CNS
CCRF-CEM leukemia = tested on: CCRF-CEM leukemia
IGROV1 ovarian = tested on: IGROV1 ovarian
HCT-15 colon = tested on: HCT-15 colon
SK-MEL-5 melanoma = tested on: SK-MEL-5 melanoma
UACC-257 melanoma = tested on: UACC-257 melanoma
TK-10 renal = tested on: TK-10 renal

Structure (SMILES)	TGI (OVCAR-8 ovarian)	TGI (HOP-62 NSCLC)	TGI (HCC-2998 colon)	TGI (SNB-75 CNS)	TGI (CCRF-CEM leukemia)	TGI (IGROV1 ovarian)	TGI (HCT-15 colon)	TGI (SK-MEL-5 melanoma)	TGI (UACC-257 melanoma)	TGI (TK-10 renal)	GI50 (OVCAR-8 ovarian)	GI50 (SNB-75 CNS)	GI50 (CCRF-CEM leukemia)	GI50 (IGROV1 ovarian)	GI50 (HCT-15 colon)	GI50 (TK-10 renal)	GI50 (SK-MEL-5 melanoma)
O=C(c1ccc(Cl)cc1Cl)N(C(=O)N1CCC(c2ccccc2)CC1)c1ccccc1	> 100 µM	> 100 µM	> 100 µM	> 100 µM	> 100 µM	> 100 µM	> 100 µM	> 100 µM	> 100 µM	–	–	–	–	–	–	–	–
CC#COP(=O)(OCC)OCC	> 100 µM	> 100 µM	> 100 µM	–	> 100 µM	> 100 µM	> 100 µM	> 100 µM	> 100 µM	> 100 µM	–	–	–	–	–	–	–
COc1cc(OCc2ccc3nc(-c4ccccc4)c(N)nc3c2)cc(OC)c1OC	72.3 µM	–	> 100 µM	59.7 µM	61.9 µM	55.9 µM	39.7 µM	24 µM	49.7 µM	50.3 µM	–	–	–	–	–	–	–
COc1ccc(/C=C2\OC(=O)C(Cl)=C2c2ccc(OC)cc2)cc1	> 100 µM	> 100 µM	–	> 100 µM	> 100 µM	> 100 µM	> 100 µM	> 100 µM	> 100 µM	> 100 µM	–	–	–	–	–	–	–
C[C@@]12C=CC3C/C(=N\C(N)=S)C=C(CCCC4OCCO4)[C@]3(CC1)C2 (stereo not given in full)	68.1 µM	92.3 µM	34.2 µM	66.3 µM	–	37.9 µM	53.6 µM	24.8 µM	40.7 µM	49.4 µM	–	–	–	–	–	–	–
N#CC(C#N)=CN1CCN(C(=O)c2ccco2)C1=S	> 100 µM	–	–	> 100 µM	> 100 µM	38.9 µM	> 100 µM	8.07 µM	–	32.7 µM	14.6 µM	40.6 µM	79.7 µM	6.61 µM	5.23 µM	4.62 µM	2.87 µM
Cc1occc1C(=S)Nc1ccc(Cl)c(C(=O)OCC(F)(F)F)c1	36.2 µM	–	35.1 µM	49.4 µM	57.7 µM	39.7 µM	45.3 µM	30.9 µM	55.9 µM	43 µM	–	–	–	–	–	–	–
COc1cc2c(/C=C3/C(=O)Nc4ccc(Cl)cc43)c(Cl)n(Cc3ccccc3)c2cc1C	–	–	–	4.61 µM	6.78 µM	13.4 µM	17.8 µM	13.7 µM	> 100 µM	3.76 µM	–	–	–	–	–	–	–
